According to PMC5956543, “Antimicrobial and antioxidant activities of triterpenoid and phenolic derivatives from two Cameroonian Melastomataceae plants: Dissotis senegambiensis and Amphiblemma monticola” (BMC Complementary and Alternative Medicine, 2018):
Values after ≈ are worked out from the molar mass of the structure shown.

Tests used:
[1] = system: S. aureus ATCC25923; assay: Broth microdilution antimicrobial assay (MIC/MMC); assay type: cell-based, Staphylococcus aureus
Method: (§1) The microorganisms used in this study include four bacterial (Staphylococcus aureus ATCC25923, methicillin sensitive S. aureus MSSA1, methicillin resistant S. aureus MRSA3 and methicillin resistant S. aureus MRSA4) and three yeast strains (Candida albicans ATCC10231, Candida tropicalis PK233 and Cryptococcus neoformans H99). These microorganisms were taken from our laboratory collection. The fungal and bacterial strains were grown at 37 °C and maintained on Sabouraud Dextrose Agar (SDA, Conda, Madrid, Spain) and nutrient agar (NA, Conda) slants respectively.
(§2) The inocula of bacteria and yeasts were prepared from overnight cultures as previously described. Absorbance was read spectrophotometrically at 530 nm and 600 nm for yeasts and bacteria respectively. The final concentrations of microbial suspensions were 2.5 × 10^5 cells/mL for yeasts and 10^6 CFU/mL for bacteria.
(§3) The antimicrobial activity was evaluated by determining the minimum inhibitory concentrations (MICs). MICs of extracts and compounds were determined by broth micro dilution. Each test sample was dissolved in 10% v/v aqueous dimethylsulfoxide (DMSO) to give a stock solution. This was serially diluted two-fold in Mueller-Hinton Broth (MHB) for bacteria and Sabouraud Dextrose Broth (SDB) for fungi to obtain a concentration range of 4096 to 0.25 μg/mL. Then, 100 μL of each sample concentration was added to respective wells (96-well micro plate) containing 90 μL of SDB/ MHB and 10 μL of inoculum to give final concentration ranges of 2048 to 4 μg/mL (for extracts) and 256 to 0.125 μg/mL (for compounds). Dilutions of nystatin (Sigma-Aldrich, Steinheim, Germany) and ciprofloxacin (Sigma-Aldrich, Steinheim, Germany) were used as positive controls for yeasts and bacteria respectively. Broth with 10 μL of DMSO was used as negative control. The cultured micro plates were covered; then, the contents of each well were mixed thoroughly using a plate shaker (Flow Laboratory, Germany) and incubated at 37 °C for 24 h (bacteria) and 48 h (yeasts) under shaking. After the incubation period, MICs were assessed visually and were taken as the lowest sample concentration at which there was no growth or virtually no growth. The lowest concentration that yielded no growth after the sub-culturing was considered as the minimum microbicidal concentrations (MMCs). All the tests were performed in triplicate.

[2] = system: S. aureus MRSA3; assay: Broth microdilution antimicrobial assay (MIC/MMC); assay type: cell-based, Staphylococcus aureus
Method: as §1, §2, §3

[3] = system: S. aureus MRSA4; assay: Broth microdilution antimicrobial assay (MIC/MMC); assay type: cell-based, Staphylococcus aureus
Method: as §1, §2, §3

[4] = system: S. aureus MSSA1; assay: Broth microdilution antimicrobial assay (MIC/MMC); assay type: cell-based, Staphylococcus aureus
Method: as §1, §2, §3

[5] = system: C. albicans ATCC10231; assay: Broth microdilution antimicrobial assay (MIC/MMC); assay type: cell-based, Candida albicans
Method: as §1, §2, §3

[6] = system: C. tropicalis PK233; assay: Broth microdilution antimicrobial assay (MIC/MMC); assay type: cell-based, Candida tropicalis
Method: as §1, §2, §3

[7] = system: C. neoformans H99; assay: Broth microdilution antimicrobial assay (MIC/MMC); assay type: cell-based, Cryptococcus neoformans
Method: as §1, §2, §3

[8] = system: yeast strains; assay: Broth microdilution MIC, range over the yeast strains; assay type: cell-based; conditions: range over the three yeast strains
Method: as §1, §2
The antimicrobial activity was evaluated by determining the minimum inhibitory concentrations (MICs). MICs of extracts and compounds were determined by broth micro dilution. Each test sample was dissolved in 10% v/v aqueous dimethylsulfoxide (DMSO) to give a stock solution. […] After the incubation period, MICs were assessed visually and were taken as the lowest sample concentration at which there was no growth or virtually no growth. […]

[9] = system: bacterial and fungal strains; assay: Broth microdilution MIC, range over all tested strains; assay type: cell-based
Method: as §1, §2, §3

[10] = Staphylococcus aureus, 37 °C, 24 h
[11] = Staphylococcus aureus, 24 h, no growth after sub-culturing

With `O=c1oc2c(O)c(O)cc3c(=O)oc4c(O)c(O)cc1c4c23` [Compound 10, ellagic acid] the MMC/MIC [1] was 2, the MIC [1, 10] was 8 mg/L (≈ 26.5 µM) and the MBC [1, 11] was 16 mg/L (≈ 52.9 µM). For the same compound, the “activity against methicillin-resistant S. aureus (in words)” value ([2]; MRSA3) was “prominent activity”, the MMC/MIC ([2]; S. aureus MRSA3) was 2 and the MBC ([2]; Staphylococcus aureus, 24 h, S. aureus MRSA3, no growth after sub-culturing) was 64 mg/L (≈ 212 µM). The MIC ([2]; Staphylococcus aureus, S. aureus MRSA3, 37 °C, 24 h) was 32 mg/L (≈ 106 µM), the “activity against methicillin-resistant S. aureus (in words)” value ([3]; MRSA4) was “prominent activity” and the MMC/MIC ([3]; S. aureus MRSA4) was 1. For the same compound, the MBC ([3]; Staphylococcus aureus, 24 h, S. aureus MRSA4, no growth after sub-culturing) was 32 mg/L (≈ 106 µM), the MIC ([3]; Staphylococcus aureus, S. aureus MRSA4, 37 °C, 24 h) was 32 mg/L (≈ 106 µM) and the MMC/MIC [4] was 1. For the same compound, the MIC [4, 10] was 16 mg/L (≈ 52.9 µM), the MBC [4, 11] was 16 mg/L (≈ 52.9 µM) and the MMC/MIC [5] was 1. It also gave an MIC ([5]; Candida albicans, 37 °C, 48 h, read-out: MIC) of 16 mg/L (≈ 52.9 µM), an MMC ([5]; no growth after sub-culturing) of 16 µg/mL and an MMC/MIC [6] of 1. The MIC ([6]; Candida tropicalis, 37 °C, 48 h, read-out: MIC) was 8 mg/L (≈ 26.5 µM), the MFC ([6]; Candida tropicalis, 48 h, no growth after sub-culturing) was 8 mg/L (≈ 26.5 µM) and the MMC/MIC [7] was 1. It also gave an MIC ([7]; Cryptococcus neoformans, 37 °C, 48 h, read-out: MIC) of 16 mg/L (≈ 52.9 µM), an MFC ([7]; Cryptococcus neoformans, 48 h, no growth after sub-culturing) of 16 mg/L (≈ 52.9 µM) and an MIC [8] of 8 to 16 mg/L (≈ 26.5 to 52.9 µM). The “antimicrobial activity (in words)” value ([9]; all the tested bacterial and fungal species) was “active against all the tested bacterial and fungal species” and the MIC ([9]; range over all bacterial and fungal strains, read-out: MIC) was 8 to 32 mg/L (≈ 26.5 to 106 µM).
